Reference: patent publication US20260337177A1, “TEAD CORE INHIBITORS FOR CANCER THERAPEUTICS” (University of Florida Research Foundation, Incorporated, priority 2023, published 2026)
Like-named read-outs stand apart in the source and are kept apart here.

Columns and labels:
[1] = test system: Huh7 cells; experiment: Huh7 cell proliferation assay (CCK8); format: cell-based, human; details: Homo sapiens
Procedure: CCK8 assay kit was used to determine antiproliferative activity of synthesized compounds against Huh7 cell line. First, Huh7 cells were seeded into 96-well plates at a density of 3000 cells/well and incubated overnight. Cells were then co-incubated with compounds at 8 concentrations for 72 h. Then, the cell proliferation was determined by the CCK8 kit according to the standard protocol. Experiments were performed in triplicate.

[2] = test system: AML12 cells; experiment: AML12 normal liver cell growth inhibition (CCK8); format: cell-based; details: for Inhibitory rate, AML12 (inhibitory percentage of AML12 cell growth): 10 μM, 3 days
[3] = test system: TEADs; experiment: TEAD-specific 8×GTIIC-luciferase reporter assay; format: cell-based; details: for inhibition at 10 µM: 8×GTIIC-luciferase, read-out: Luciferase reporter assay inhibitory rate
Procedure: A series of compounds featuring a chloromethyl ketone moiety were synthesized (Schemes 1-4). The inhibitory rate of this series of compounds was tested using 8×GTIIC-luciferase reporter assay at 10 μM.
Next, the inhibition of TEAD transcription activity of compounds was tested varying the dosage using the 8×GTIIC-luciferase reporter assay. […] The aim was to determine whether its inhibition of TEAD transcription can lead to downregulation of the YAP-TEAD target genes. CTGF is one of the best characterized (bona fide) target gene of YAP and TAZ.
To further investigate the mechanism of the inhibitory effect of compounds in Huh7 cells, TEADs specific luciferase reporter assays were performed with compounds 22 and 12 at several concentrations. […] TEAD downstream gene expression patterns were evaluated in liver cancer cells Huh7, which has been evidenced with relative high expression of YAP and TEAD2.
HEK 293T cells were plated at 2×10^4 cells/well in a 96 well microplate and were transfected with 50 ng of 8×GTIIC-luciferase plasmid (Addgene #34615) and 0.5 ng of pRL-CMV (Promega #E226A) by using lipofectamine 3000 (Life Technologies #L3000). The 8×GTIIc-luciferase reporter is a Yap/Taz-activity reporter containing eight TEAD consensus binding sequences. After 6 h, transfected cells were treated with various concentrations of compounds or DMSO control. Luciferase signals were measured using the Dual Luciferase Reporter Assay System (Promega, E1960) according to the manufacturer's instructions. Experiments were performed in triplicate and repeated at least three times.

[4] = test system: Huh7 xenograft; experiment: Huh7 mouse xenograft model, antitumor efficacy; format: in vivo, NSG mouse; details: Sorafenib 100 mg/kg oral every three days for 24 days
Procedure: Based on the favorable in vitro potency and low toxicity, the in vivo antitumor efficacy of compound 22 was further evaluated in the NSG mouse (NOD scid gamma mouse) xenograft model from human Huh7 cells. Sorafenib, the first-line treatment for primary hepatocellular carcinoma (HCC) patients, served as the control. Compound 22 was tested as a monotherapy and in combination with Sorafenib.
The animals were administered 10 mg/kg of compound 22 twice a week for four weeks via intraperitoneal (IP) injection.
The mice were administered 50 mg/kg of compound 22 every three day for 24 days via intraperitoneal (IP) injection. Sorafenib was administered orally at a dose of 100 mg/kg following the same schedule.
Tumors were implanted by subcutaneous injection of 5×10^6 Huh7 cells in 100 μL of PBS containing 10% matrix gel (Coming, NY, USA), into the right flank of the mouse. When the tumor volume reached about 85 mm^3, mice were randomized into the vehicle control group (n=5) and a treatment group (n=5). The vehicle group (n=5) received the vehicle only (50% phosal 50 PG, 45% miglyol 810 N and 5% polysorbate 80), while the treatment group (n=5) was given compound 22 (50 mg/kg in 50% phosal 50 PG, 45% miglyol 810 N and 5% polysorbate 80) via IP injection every three days. After 24 days, mice were euthanized. Sorafenib (100 mg/kg, every three day) was dissolved in 75% Ethanol and Cremophor EL (1:1) and administered directly into the animals' stomachs using a gastric probe. Tumor size and body weight were measured every 3 days, and tumor volume was estimated using the formula volume=½×length×width^2. Tumor growth inhibition value (TGI) was calculated as TGI (%) [1−Vt/Vc]×100, where Vc and Vt were […].

[5] = Huh-7, 72 h, 3 days, CCK8, mean ± SD of three independent experiments, read-out: Cell proliferation assay IC50, Huh7

IC50 [1, 5]	IC50 ([1]; Huh-7, Table 3 column is in μM, read-out: Huh7 cell growth inhibition / proliferation IC50)	SMILES	Inhibitory rate, AML12 (inhibitory percentage of AML12 cell growth) [2]	inhibition at 10 µM [3]	TEAD transcription inhibition, luciferase reporter ([3]; varying dosage, FIGS. 3A-3B)	Toxicity towards normal liver cell line AML12 [2]	Tumor growth inhibition (TGI) rate [4]
> 50 µM	–	C=CC(=O)NCc1c[nH]c2cc(Cl)c(OCc3ccccc3)cc12 [Compound 11, N-((5-(benzyloxy)-6-chloro-1H-indol-3-yl)methyl)acrylamide]	0%	–	–	–	–
–	–	N#C/C(=C\c1c[nH]c2cc(Cl)c(OCc3cccc(C(F)(F)F)c3)cc12)C(N)=O [Compound 21, 3-(6-chloro-5-((3-(trifluoromethyl)benzyl)oxy)-1H-indol-3-yl)-2-cyanoacrylamide]	97.1%	59.7%	–	–	–
14.4 ± 1.2 µM	–	C=CC(=O)NCc1c[nH]c2cc(Cl)c(OCc3cccc4ccccc34)cc12 [Compound 10, N-((6-chloro-5-(naphthalen-1-ylmethoxy)-1H-indol-3-yl)methyl)acrylamide]	0%	10.6%	–	–	–
5.3 ± 0.5 µM	–	N#C/C(=C\c1c[nH]c2cc(Cl)c(OCC3CCC(F)(F)CC3)cc12)C(N)=O [Compound 19, (E)-3-(6-chloro-5-((4,4-difluorocyclohexyl)methoxy)-1H-indol-3-yl)-2-cyanoacrylamide]	30.1%	60.1%	–	–	–
–	–	N#C/C(=C\c1c[nH]c2cc(Cl)c(OCc3cccc4ccccc34)cc12)C(N)=O [Compound 18, (E)-3-(6-chloro-5-(naphthalen-1-ylmethoxy)-1H-indol-3-yl)-2-cyanoacrylamide]	70.3%	51.3%	–	–	–
> 50 µM	–	N#C/C(=C\c1c[nH]c2cc(Cl)c(OCc3ccccc3)cc12)C(N)=O [Compound 16, (E)-3-(5-(benzyloxy)-6-chloro-1H-indol-3-yl)-2-cyanoacrylamide]	0%	–	–	–	–
30.2 ± 2.5 µM	–	C=CC(=O)NCc1c[nH]c2cc(Cl)c(OCc3ccc4ccccc4c3)cc12 [Compound 9, N-((6-chloro-5-(naphthalen-2-ylmethoxy)-1H-indol-3-yl)methyl)acrylamide]	0%	1.5%	–	–	–
5.7 ± 1.3 µM	–	O=C(CCl)NCc1c[nH]c2cc(Cl)c(OCc3ccc4ccccc4c3)cc12 [Compound 13, 2-chloro-N-((6-chloro-5-(naphthalen-2-ylmethoxy)-1H-indol-3-yl)methyl)acetamide]	43.4%	67.4%	–	–	–
0.8 ± 0.2 µM	0.8 µM	O=C(CCl)NCc1c[nH]c2cc(Cl)c(OCc3cccc4ccccc34)cc12 [Compound 14, 2-chloro-N-((6-chloro-5-(naphthalen-1-ylmethoxy)-1H-indol-3-yl)methyl)acetamide]	54.1%	81.5%	–	significant cytotoxicity	–
–	–	CNC(=O)c1cc(Oc2ccc(NC(=O)Nc3ccc(Cl)c(C(F)(F)F)c3)cc2)ccn1 [Sorafenib, reference compound]	–	–	–	–	76%
68.7 ± 5.4 µM	–	N#C/C(=C\c1c[nH]c2cc(Cl)c(OCc3ccc4ccccc4n3)cc12)C(N)=O [Compound 20, (E)-3-(6-chloro-5-(quinolin-2-ylmethoxy)-1H-indol-3-yl)-2-cyanoacrylamide]	0%	–	–	–	–
2 ± 0.7 µM	–	C=C(CN(C)C)C(=O)NCc1c[nH]c2cc(Cl)c(OCc3ccccc3)cc12 [Compound 25, N-((5-(benzyloxy)-6-chloro-1H-indol-3-yl)methyl)-2-((dimethylamino)methyl) acrylamide]	37.2%	71.8%	–	–	–
8.3 ± 0.8 µM	–	O=C(CCl)NCc1c[nH]c2cc(Cl)c(OCc3cccc(C(F)(F)F)c3)cc12 [Compound 15, 2-chloro-N-((6-chloro-5-((3-(trifluoromethyl)benzyl)oxy)-1H-indol-3-yl)methyl) acetamide]	41.1%	47.9%	–	–	–
4.1 ± 0.6 µM	–	N#C/C(=C\c1c[nH]c2cc(Cl)c(OCc3ccc4ccccc4c3)cc12)C(N)=O [Compound 17, (E)-3-(6-chloro-5-(naphthalen-2-ylmethoxy)-1H-indol-3-yl)-2-cyanoacrylamide]	60.2%	47.3%	–	–	–

SMILES	IC50 [1, 5]	IC50 ([1]; Huh-7, Table 3 column is in μM, read-out: Huh7 cell growth inhibition / proliferation IC50)	Inhibitory rate, AML12 (inhibitory percentage of AML12 cell growth) [2]	inhibition at 10 µM [3]	TEAD transcription inhibition, luciferase reporter ([3]; varying dosage, FIGS. 3A-3B)	Toxicity towards normal liver cell line AML12 [2]	Tumor growth inhibition (TGI) rate [4]
COc1cc2[nH]cc(C(=O)CCl)c2cc1OCc1cccc2ccccc12 [Compound 6, 2-chloro-1-(6-methoxy-5-(naphthalen-1-ylmethoxy)-1H-indol-3-yl)ethan-1-one]	2.5 ± 0.8 µM	–	62.1%	64.5%	–	–	–
O=C(CCl)c1c[nH]c2ccc(OCc3ccc4ccccc4c3)cc12 [Compound 7, 2-chloro-1-(5-(naphthalen-2-ylmethoxy)-1H-indol-3-yl)ethan-1-one]	> 20 µM	–	–	5.3%	–	–	–
COc1cc2[nH]cc(C(=O)CCl)c2cc1OCc1ccccc1 [Compound 4, 1-(5-(benzyloxy)-6-methoxy-1H-indol-3-yl)-2-chloroethan-1-one]	3.8 ± 0.4 µM	–	46.1%	53.7%	–	–	–
O=C(CCl)c1c[nH]c2cc(Cl)c(OCc3ccccc3)cc12 [Compound 1, 1-(5-(benzyloxy)-6-chloro-1H-indol-3-yl)-2-chloroethan-1-one]	2.7 ± 0.2 µM	–	36.2%	74.6%	–	–	–
O=C(CCl)c1c[nH]c2ccc(OCc3ccccc3)cc12 [Compound 8, 1-(5-(benzyloxy)-1H-indol-3-yl)-2-chloroethan-1-one]	10.5 ± 0.9 µM	–	–	20.5%	–	–	–
COc1cc2[nH]cc(C(=O)CCl)c2cc1OCc1ccc2ccccc2c1 [Compound 5, 2-chloro-1-(6-methoxy-5-(naphthalen-2-ylmethoxy)-1H-indol-3-yl)ethan-1-one]	2.4 ± 0.5 µM	–	77.4%	93.9%	potent inhibition activity	high toxicity	–
O=C(CCl)c1c[nH]c2cc(Cl)c(OCc3cccc4ccccc34)cc12 [Compound 3, 2-chloro-1-(6-chloro-5-(naphthalen-1-ylmethoxy)-1H-indol-3-yl)ethan-1-one]	1.6 ± 0.3 µM	–	50.3%	69.4%	–	–	–
O=C(CCl)c1c[nH]c2cc(Cl)c(OCc3ccc(C(F)(F)F)cc3)cc12 [Compound 23, 2-chloro-1-(6-chloro-5-((4-(trifluoromethyl)benzyl)oxy)-1H-indol-3-yl)ethan-1-one]	16.9 µM	–	–	–	–	–	–
O=C(CCl)c1c[nH]c2cc(Cl)c(OCc3ccc(C(F)(F)F)c(F)c3)cc12 [Compound 24, 2-chloro-1-(6-chloro-5-((3-fluoro-4-(trifluoromethyl)benzyl)oxy)-1H-indol-3-yl)ethan-1-one]	1.8 µM	–	–	–	–	–	–
